This is an account of results in patent US6677350B1, “Beta-fluoroethyl thiourea compounds and use” (priority 1999, dated 2004).

Series [1] concerns Mtb. The series is described as follows: Actual minimum inhibitory concentration (MIC), lowest concentration inhibiting 99% of the inoculum. The note with it: read-out: minimum inhibitory concentration (MIC). Format: cell-based, Mycobacterium tuberculosis.
Series [2] concerns M. tuberculosis H37Rv (ATCC 27294). The series is described as follows: In vitro anti-tuberculosis screening, BACTEC 460 radiometric system, percent inhibition of growth. The note with it: for inhibition at 12.5 µg/mL: Mycobacterium tuberculosis. Format: cell-based, Mycobacterium tuberculosis.
Where [3] appears, read: Mycobacterium tuberculosis, lowest concentration inhibiting 99% of the inoculum.
Where [4] appears, read: Mtb H37Rv, drug concentration 12.5 μg/mL, read-out: inhibition of the growth of Mtb.
The mark [5] stands for this setting: Mtb H37Rv, 12.5 μg/mL, BACTEC 12B medium, read-out: Activity % inhibition at 12.5 μg/mL (chalcones).
[6] abbreviates: read-out: Activity % inhibition at 12.5 μg/mL (chalcone-like compounds), Mtb H37Rv, 12.5 μg/mL, BACTEC 12B medium.
The mark [7] stands for this setting: read-out: inhibition of the growth of Mtb, Mtb H37Rv, drug concentration 12.5 μg/mL.
Setting [8] is: Mtb H37Rv, 12.5 μg/mL, BACTEC 12B medium.

Converted amounts (≈) assume the structure as drawn. Where two headings read alike, the source gives them in different places.

With `COc1ccc(-c2cc(=O)c3c(OC)c(-c4c(OC)cc5oc(-c6ccc(OC)cc6)cc(=O)c5c4OC)c(OC)cc3o2)cc1` [Compound 151, 6,6″-Biapigenin hexamethylether], the melting point was 303 to 304 °C. Moreover, in series [1] (setting [3]), the MIC was greater than 20.1 µM. The inhibition at 12.5 µg/mL in series [2] (Mtb H37Rv, 12.5 μg/mL, BACTEC 12B medium, read-out: Activity % Inhibition at 12.5 μg/mL (biflavonoids)) is 96%. For the same molecule, the inhibition at 12.5 µg/mL in series [2] (setting [4]) worked out at 96%.

Consider `COc1ccc(Br)c2c1C(=O)CC(c1ccccc1)O2` (stereo not drawn) [Compound 133, 5-Methoxy-8-bromo-flavanone], for which the melting point is 134 to 165 °C. Further, the inhibition at 12.5 µg/mL in series [2] (Mtb H37Rv, 12.5 μg/mL, BACTEC 12B medium, read-out: Activity % Inhibition at 12.5 μg/mL (flavanones)) worked out at 87%. In series [2] (setting [4]), the inhibition at 12.5 µg/mL is 87%.

In the case of `O=C(/C=C/c1cccc(Cl)c1)c1ccccc1O` [Compound 24, 3-Chloro-2′-hydroxychalcone], the melting point was 108 to 108.5 °C. The MIC in series [1] (setting [3]) stood at 48.3 µM (≈ 12.5 µg/mL). The inhibition at 12.5 µg/mL in series [2] (setting [5]) is 90%. Also, the inhibition at 12.5 µg/mL in series [2] (setting [4]) was determined as 90%.

Take `O=C(C=Cc1cc2ccccc2c2ccccc12)c1cccc(O)c1` [Compound 54, 1-(3-Hydroxyphenyl)-3-phenanthren-9-yl-2-propen-1-one]: the melting point was in the range of 212 to 213 °C. Further, the MIC in series [1] (Mycobacterium tuberculosis) is 19.2 µM (≈ 6.23 µg/mL). Moreover, the inhibition at 12.5 µg/mL in series [2] (setting [6]) was 97%. For the same molecule, the inhibition at 12.5 µg/mL in series [2] (setting [7]) turned out to be 97%.

Consider “1-(5-pyridin-2-yl)-3-(phenanthen-9-yl)-2-propen-1-one [Compound 55]”, for which, in series [1] (lowest concentration inhibiting 99% of the inoculum), the MIC was found to be 20.2 µM. Moreover, in series [2] (setting [8]), the “Activity % inhibition at 12.5 μg/mL (chalcone-like compounds)” value is on record as 96%.

Molecule `O=C(C=Cc1ccccc1)c1ccco1` [Compound 56, 1-(Furan-2-yl)-3-phenyl-2-propen-1-one] registered a melting point of 94 to 95 °C. Further, the MIC in series [1] (Mycobacterium tuberculosis) was found to be 31.5 µM (≈ 6.24 µg/mL). For the same molecule, in series [2] (setting [6]), the inhibition at 12.5 µg/mL came out at 96%. Further, in series [2] (setting [7]), the inhibition at 12.5 µg/mL amounted to 96%.

The molecule `O=C(C=Cc1cccnc1)c1ccc(F)cc1` [Compound 53, 1-(4-Fluorophenyl)-3-(pyridin-3-yl)-2-propen-1-one] returned a melting point of 126 to 127 °C. Besides, the MIC in series [1] (Mycobacterium tuberculosis) turned out to be 6.8 µM (≈ 1.55 µg/mL). The inhibition at 12.5 µg/mL in series [2] (setting [6]) is 98%. The inhibition at 12.5 µg/mL in series [2] (setting [7]) stood at 98%.

As to `O=C(/C=C/c1cccc(I)c1)c1ccccc1O` [Compound 40, 3-Iodo-2′-hydroxychalcone], the MIC in series [1] (setting [3]) was greater than 35.7 µM. The inhibition at 12.5 µg/mL in series [2] (setting [5]) and in series [2] (setting [4]) was 92% in each case.

Consider `COc1ccc(/C=C/C(=O)c2c(O)cc(OC)cc2OC)cc1` [Compound 7], for which the “Activity % inhibition at 12.5 μg/mL (chalcones)” value in series [2] (setting [8]) is recorded as 40%. For the same molecule, the “inhibition of the growth of Mtb” value in series [2] (Mtb H37Rv, drug concentration 12.5 μg/mL) was 40%.

A word on the melting point: it is the temperature of the solid-liquid transition.
